Test results from the NIST ThermoML archive (doi:10.1016/j.fluid.2012.06.028).
Numbers after ± are expanded uncertainties.

Test: xn = mol fraction of the nth substance listed
Conditions: Liquid, Vibrating tube method

CCCCCCCCCCCCCC [tetradecane] + CCCCCCCCCC
mass density [kg/m3]
Conditions | 1000 kPa | 2000 kPa | 3000 kPa | 4000 kPa | 5000 kPa | 6000 kPa | 7000 kPa | 8000 kPa | 9000 kPa | 10000 kPa
295 K, x2 = 0.5 | 746.3 ± 0.4 | – | 747.6 ± 0.4 | 748.3 ± 0.4 | 749 ± 0.4 | 749.7 ± 0.4 | – | 751.1 ± 0.4 | 751.7 ± 0.4 | –
295 K, x2 = 0.75 | 739.2 ± 0.4 | 739.9 ± 0.4 | 740.7 ± 0.4 | 741.4 ± 0.4 | 742.1 ± 0.4 | 742.8 ± 0.4 | 743.5 ± 0.4 | 744.2 ± 0.4 | 745 ± 0.4 | 745.7 ± 0.4
295.5 K, x2 = 0.25 | 753.2 ± 0.4 | 753.9 ± 0.4 | 754.6 ± 0.4 | 755.3 ± 0.4 | 756 ± 0.4 | 756.7 ± 0.4 | 757.4 ± 0.4 | 758 ± 0.4 | 758.7 ± 0.4 | 759.4 ± 0.4
